Reference: ChEMBL document CHEMBL1128870, “Synthesis and anti-HIV activities of 2-deoxy-2,2-difluoro--L-ribofuranosyl-pyrimidine and -purine nucleosides” (Bioorg Med Chem Lett, 1995)

Assays:
[1] = In vitro anti-HIV activity against HIV-1 in human peripheral blood mononuclear (PBM) cells; type: functional
[2] = Cytotoxic activity against HIV-1 in peripheral blood mononuclear (PBM) cells; type: functional; conditions: Homo sapiens
Vero = assay: Cytotoxic activity against HIV-1 in rapidly dividing vero cells; type: functional, cell-based; conditions: Chlorocebus sabaeus

EC50 [1] [µM]	SMILES	IC50 [2] [µM]	IC50 (Vero) [µM]
> 100	Cc1cn([C@@H]2O[C@@H](CO)C(O[Si](C)(C)C(C)(C)C)C2(F)F)c(=O)[nH]c1=O (single isomer, unassigned)	> 100	> 100
> 100	CC(C)(C)[Si](C)(C)OC1[C@H](CO)O[C@H](n2ccc(N)nc2=O)C1(F)F (single isomer, unassigned)	> 100	> 100
3.4	Nc1ncnc2c1ncn2[C@H]1O[C@@H](CO)C(O)C1(F)F (single isomer, unassigned)	> 100	> 100
> 100	Nc1ncnc2c1ncn2[C@@H]1O[C@@H](CO)C(O)C1(F)F (single isomer, unassigned)	> 100	> 100
> 100	CC(C)(C)[Si](C)(C)OC1[C@H](CO)O[C@@H](n2ccc(N)nc2=O)C1(F)F (single isomer, unassigned)	> 100	> 100
> 100	Cc1cn([C@H]2O[C@@H](CO)C(O[Si](C)(C)C(C)(C)C)C2(F)F)c(=O)[nH]c1=O (single isomer, unassigned)	> 100	> 100

SMILES	EC50 [1] [µM]	IC50 [2] [µM]	IC50 (Vero) [µM]
Cc1cn([C@H]2C[C@H](N=[N+]=[N-])[C@@H](CO)O2)c(=O)[nH]c1=O [ZIDOVUDINE]	0.004	> 100	–
